The results in this text go back to patent US6632960B2, “Diaryliodonium salt catalysts made from iodotoluene and a method for preparing them” (Goldschmidt AG, priority 2002, dated 2003).

A short description of series [1]: Iodonium catalyst solubility studies: time to dissolve to a clear solution at 70° C. Particulars: Comparison 2: 3 parts by weight catalyst in 100 parts PC-1000 (epoxy siloxane monomer); 2.9 wt. % solution.
A short description of series [2]: Solution stability of catalyst solutions on storage at 25° C. The class given is physicochemical. Particulars: Comparison 3: 40 parts catalyst in 60 parts ERL 4221E; listed as iodotoluene catalyst.

For `CCCCCCCCCCCCC(O)COc1ccc([I+]c2ccc(C)cc2)cc1` (centres unmarked) [PCX-2519, [4-(2-hydroxy-1-tetradecyloxy)-phenyl] 4-methylphenyliodonium hexafluorophosphate], the “Time @ 70° C. (for clear solution)” value in series [1] is “half and ½ hr”. In addition, in series [2], the “Solution Stability (after 14 days @ 25° C.)” value was “remained stable and clear”.
